For orientation: IC50 means the concentration needed to halve the response being measured. The EC50 is the concentration giving half of the maximal effect.

Experimental findings from patent EP0726903B1, “MATRIX METALLOPROTEASE INHIBITORS” (SYNTEX (U.S.A.) INC., priority 1993, dated 1995) are described below.

The target in one assay is T1, HFC (Homo sapiens, UniProt P03956).
T1 sequence (P03956 100-469): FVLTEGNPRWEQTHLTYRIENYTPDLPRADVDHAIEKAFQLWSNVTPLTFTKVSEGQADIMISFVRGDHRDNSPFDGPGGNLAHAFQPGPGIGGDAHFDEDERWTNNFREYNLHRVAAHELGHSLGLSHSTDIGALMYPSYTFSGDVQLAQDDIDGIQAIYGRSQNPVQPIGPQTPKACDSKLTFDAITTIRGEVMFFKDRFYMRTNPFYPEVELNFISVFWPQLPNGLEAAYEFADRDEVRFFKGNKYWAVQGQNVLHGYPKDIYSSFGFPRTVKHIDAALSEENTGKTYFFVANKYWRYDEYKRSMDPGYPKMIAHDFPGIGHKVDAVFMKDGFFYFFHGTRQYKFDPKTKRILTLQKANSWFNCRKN
As to the kind of experiment: In vitro enzyme inhibition assay (fluorescence, thiopeptide substrate), HFC. The assay is classed as biochemical.

Assay [1] has as its system release of ^35S-labelled glycosaminoglycans (GAG's) from cartilage explants. Description: Inhibition of release of 35S-labelled glycosaminoglycans from cartilage explants. The format is cell-based. The conditions noted are these: Bos taurus; bovine knee joint cartilage explants, release induced by rhIL-1-alpha. The method, then:
This assay determines if the compounds of formula (I) inhibit the release of ^35S-labelled glycosaminoglycans (GAG's) from cartilage explants.
Small cartilage explants (3 mm diameter) were prepared from freshly sacrificed bovine knee joints and labeled with ^35SO4. ^35S-labelled glycosaminoglycans (GAG's) are released into the culture medium in response to the addition of rhIL-1-alpha, which induces the expression of chondrocyte matrix metalloproteases (MMP's), including stromelysin and collagenase. The percent inhibition of labeled GAG's was corrected for spontaneous release in the absence of rh1L-1-alpha. Results for each group represent the mean ± the S.E.M. for five explants.

A further assay has as its target STROM. (Homo sapiens, UniProt P08254). As to the kind of experiment: In vitro enzyme inhibition assay (fluorescence, thiopeptide substrate), STROM. The format is biochemical.
Assay [2] concerns bovine PTH induced bone resorption. Description: In vitro fetal rat long bone model of bone resorption (45Ca release). The format is cell-based. The settings on record: ^45Ca release from fetal rat long bones, Bovine PTH (1-34) at 1x10^-8M, Day 6. From the text:
An in vitro fetal rat long bone model was used to study the anti-bone resorptive effect of the compounds of formula (I). Bovine PTH was used to induce bone resorption in vitro. The bone resorptive effects were expressed by the amounts of ^45Ca released from the ^45Ca pre-labelled fetal rat long bones into the culture medium. The inhibitory effect of the compounds of formula (I) against bovine PTH induced bone resorption was expressed as mean percent inhibition ± sem.
^45Ca-prelabelled fetal rat long bones (from forearms) were dissected and cultured in Linbro dishes at 37°C overnight BGJb medium, supplemented with lmg/ml BSA. There were five pairs of bones in each group. The compounds of formula (I) were dissolved in ethanol first, then diluted to various concentrations and added simultaneously with Bovine PTH (1-34) at […] on Day 1. […] The assay was terminated on Day 6 with one media change on Day 3.
At the end of each medium change, the ^45Ca present in the culture medium was counted. The remaining bones were digested with 0.1N HCl and the ^45Ca presented in the bone digest was also counted. The results are expressed as % of the total ^45Ca released from each pair of bones. Bovine PTH at 1x10^-8M induces bone resorption to the maximum level which is set as 100% and this concentration was used as standard. The level of base line bone resorption in the presence of medium only was set as 0%. All compound-treated groups were compared with bovine PTH (1-34) at 1x10^-8M.

Sequence of STROM. (P08254 100-477): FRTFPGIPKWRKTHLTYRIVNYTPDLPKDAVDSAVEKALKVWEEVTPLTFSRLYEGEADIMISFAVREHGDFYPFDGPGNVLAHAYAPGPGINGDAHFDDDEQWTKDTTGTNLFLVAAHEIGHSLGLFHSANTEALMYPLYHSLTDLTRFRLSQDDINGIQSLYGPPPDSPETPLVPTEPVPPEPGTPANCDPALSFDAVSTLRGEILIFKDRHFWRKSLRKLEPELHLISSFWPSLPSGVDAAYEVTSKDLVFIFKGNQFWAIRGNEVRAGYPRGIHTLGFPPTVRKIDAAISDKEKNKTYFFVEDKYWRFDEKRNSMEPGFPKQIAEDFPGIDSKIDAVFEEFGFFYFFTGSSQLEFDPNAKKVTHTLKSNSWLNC

As for `COC(=O)c1ccc(NC(=O)[C@H](CC(C)C)NC(=O)C(CC(=O)NO)CC(C)C)cc1` (stereo partly drawn) [Compound 2, N-(4-methyl-2-(N"-hydroxycarbamoyl)methylpentanoyl)-L-leucine-N'-(4-methoxycarbonylphenyl)carboxamide], the 50% inhibitory concentration (IC50) was determined as 8.4 nM against HFC, 1.4 nM against STROM. and 270 nM in assay [2] (144 h). The concentration for a half-maximal effect (EC50) in assay [1] amounted to 3500 nM.
Consider `COC(=O)c1ccc(NC(=O)[C@H](CCSC)NC(=O)C(CC(C)C)CP(=O)(O)CSc2ccc3ccccc3n2)cc1` (stereo partly drawn) [Compound 1, N-(2-(hydroxy)(quinolin-2-ylthiomethyl)phosphinoylmethyl-4-methylpentanoyl)-L-methionine-N'-(4-methoxycarbonylphenyl)carboxamide], for which, in assay [2], the IC50 was ≥ 5000 nM.
On the same count and under the same terms, as for `COC(=O)c1ccc(NC(=O)[C@H](Cc2c[nH]c3ccccc23)NC(=O)C(CC(=O)NO)CC(C)C)cc1` (single isomer, unassigned) [Compound 4, N-(4-methyl-2-(N"-hydroxycarbamoyl)methylpentanoyl)-L-tryptophan-N'-(4-methoxycarbonylphenyl)carboxamide], the figure is ≥ 5000 nM; as for `COC(=O)c1ccc(NC(=O)[C@H](Cc2c[nH]c3ccccc23)NC(=O)C(CC(=O)NO)CC(C)C)cc1` (single isomer, unassigned) [Compound 3, N-(4-methyl-2-(N"-hydroxycarbamoyl)methylpentanoyl)-L-tryptophan-N'-(4-methoxycarbonylphenyl)carboxamide], 50 nM.
